This experiment deals with T1, Androgen Receptor (Homo sapiens, UniProt P10275).
T1 construct: endogenous in cells; host or cells: VCaP cells
T1 sequence (P10275 1-920): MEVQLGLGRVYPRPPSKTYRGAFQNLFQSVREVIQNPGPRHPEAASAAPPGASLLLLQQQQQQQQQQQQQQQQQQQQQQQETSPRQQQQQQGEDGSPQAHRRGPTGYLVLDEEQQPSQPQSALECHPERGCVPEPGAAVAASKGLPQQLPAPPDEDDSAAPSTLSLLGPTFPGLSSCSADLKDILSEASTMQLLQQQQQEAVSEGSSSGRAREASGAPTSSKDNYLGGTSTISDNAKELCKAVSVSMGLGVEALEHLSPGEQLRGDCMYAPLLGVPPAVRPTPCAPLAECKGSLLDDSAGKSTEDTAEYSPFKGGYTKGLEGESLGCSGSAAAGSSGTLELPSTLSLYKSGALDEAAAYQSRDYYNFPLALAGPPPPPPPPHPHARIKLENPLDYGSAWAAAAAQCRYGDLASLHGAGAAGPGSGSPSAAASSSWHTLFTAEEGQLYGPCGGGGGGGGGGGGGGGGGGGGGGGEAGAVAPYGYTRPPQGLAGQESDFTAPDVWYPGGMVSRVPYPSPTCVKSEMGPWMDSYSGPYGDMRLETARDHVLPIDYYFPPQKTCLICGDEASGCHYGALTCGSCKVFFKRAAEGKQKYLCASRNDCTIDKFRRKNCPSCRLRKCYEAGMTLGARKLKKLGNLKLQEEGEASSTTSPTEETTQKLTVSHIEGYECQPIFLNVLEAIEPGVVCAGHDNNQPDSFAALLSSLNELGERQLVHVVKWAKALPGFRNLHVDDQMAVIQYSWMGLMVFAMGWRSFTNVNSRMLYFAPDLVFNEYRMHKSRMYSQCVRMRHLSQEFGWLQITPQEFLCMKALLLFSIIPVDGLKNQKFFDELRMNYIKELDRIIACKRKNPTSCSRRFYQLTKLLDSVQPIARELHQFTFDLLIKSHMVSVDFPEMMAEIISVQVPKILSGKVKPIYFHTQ
The experiment can be described thus: Androgen Receptor ELISA assay (PathScan AR ELISA) in VCaP cells: AR degradation, Dmax and DC50. The class given is cell-based. An outline of the steps:
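VCaP cells, 30,000/well, grown ≥3 days in phenol red-free RPMI with 5% charcoal-stripped FBS; compound added in 0.1% DMSO with 0.1 nM R1881, 7 half-log doses, 24 h. Lysate AR quantified by PathScan sandwich ELISA, HRP/TMB read at 450 nm, giving DC50 and Dmax.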
For orientation: An ELISA detects its analyte on a solid surface through an enzyme-linked reagent.

Where [1] appears, read: VCaP cells; concentration that caused 50% Androgen Receptor degradation; read-out: VCaP DC50.
Setting [2] is: VCaP, VCaP cells; highest percentage of Androgen Receptor degradation; read-out: VCaP Dmax (%).
Setting [3] is: read-out: VCaP DC50; VCaP cells; concentration that caused 50% Androgen Receptor degradation.
Where [4] appears, read: read-out: VCaP DC50; VCaP cells; Table 34.

Read-outs that look alike come from different tables or passages of the source. Bounds are passed on as bounds.

In the case of `Cc1ncoc1-c1ccc(CNC(=O)[C@@H]2C[C@@H](O)CN2C(=O)[C@@H](NC(=O)CNCCCCCOc2ccc(C(=O)N[C@H]3C(C)(C)[C@H](Oc4ccc(C#N)c(Cl)c4)C3(C)C)cc2)C(C)(C)C)cc1` [Example 189, (2S,4R)-1-[(2S)-3,3-dimethyl-2-(2-{[5-(4-{[trans-3-(3-chloro-4-cyanophenoxy)-2,2,4,4-tetramethylcyclobutyl]carbamoyl}phenoxy)pentyl]amino}acetamido)butanoyl]-4-hydroxy-N-{[4-(4-methyl-1,3-oxazol-5-yl)phenyl]methyl)pyrrolidine-2-carboxamide], the Dmax (usually the greatest extent of degradation seen) (VCaP, highest percentage of Androgen Receptor degradation observed, VCaP cells (Table 32); read-out: VCaP Dmax (%)) lay within 51 to 70%. Also, under “concentration that caused 50% Androgen Receptor degradation, VCaP cells (Table 32); read-out: VCaP DC50”, the DC50 (usually the concentration giving 50% degradation) is under 50 nM.
As for `CC(C)(C)[C@H](NC(=O)COCCCCOc1ccc(-c2ccc(N3C(=S)N(c4cnc(C#N)c(C(F)(F)F)c4)C(=O)C3(C)C)cc2)cc1)C(=O)N1C[C@H](O)C[C@H]1C(=O)NCc1ccc(-c2cnco2)cc1` [Example 190, (2S,4R)-1-[(2S)-2-(2-{4-[4-(4-{3-[6-cyano-5-(trifluoromethyl)pyridin-3-yl]-5,5-dimethyl-4-oxo-2-sulfanylideneimidazolidin-1-yl}phenyl)phenoxy]butoxy}acetamido)-3,3-dimethylbutanoyl]-4-hydroxy-N-{[4-(1,3-oxazol-5-yl)phenyl]methyl}pyrrolidine-2-carboxamide], under setting [1], the DC50 is under 50 nM. Besides, the greatest degradation seen (Dmax) under setting [2] is over 71%.
In the same order, the values of `CC(C)(C)[C@H](NC(=O)COCCCCOc1ccc(-c2ccc(N3C(=S)N(c4cnc(C#N)c(Cl)c4)C(=O)C3(C)C)cc2)cc1)C(=O)N1C[C@H](O)C[C@H]1C(=O)NCc1ccc(-c2cnco2)cc1` [Example 191, (2S,4R)-1-[(2S)-2-{2-[4-(4-{4-[3-(5-chloro-6-cyanopyridin-3-yl)-5,5-dimethyl-4-oxo-2-sulfanylideneimidazolidin-1-yl]phenyl}phenoxy)butoxy]acetamido}-3,3-dimethylbutanoyl]-4-hydroxy-N-{[4-(1,3-oxazol-5-yl)phenyl]methyl}pyrrolidine-2-carboxamide] are under 50 nM and 51 to 70%.
Turning to `Cc1ncoc1-c1ccc(CNC(=O)[C@@H]2C[C@@H](O)CN2C(=O)[C@@H](NC(=O)COCCCCOc2ccc(-c3ccc(N4C(=S)N(c5cnc(C#N)c(C(F)(F)F)c5)C(=O)C4(C)C)cc3)cc2)C(C)(C)C)cc1` [Example 192, (2S,4R)-1-[(2S)-2-(2-{4-[4-(4-{3-[6-cyano-5-(trifluoromethyl)pyridin-3-yl]-5,5-dimethyl-4-oxo-2-sulfanylideneimidazolidin-1-yl}phenyl)phenoxy]butoxy}acetamido)-3,3-dimethylbutanoyl]-4-hydroxy-N-{[4-(4-methyl-1,3-oxazol-5-yl)phenyl]methyl}pyrrolidine-2-carboxamide], the DC50 under setting [1] was under 50 nM. The Dmax under setting [2] was over 71%.
In the same order, the values of `Cc1ncsc1-c1ccc(CNC(=O)[C@@H]2C[C@@H](O)CN2C(=O)[C@@H](NC(=O)COCCCCOc2ccc(-c3ccc(N4C(=S)N(c5cnc(C#N)c(C(F)(F)F)c5)C(=O)C4(C)C)cc3)cc2)C(C)(C)C)cc1` [Example 193, (2S,4R)-1-[(2S)-2-(2-{4-[4-(4-{3-[6-cyano-5-(trifluoromethyl)pyridin-3-yl]-5,5-dimethyl-4-oxo-2-sulfanylideneimidazolidin-1-yl}phenyl)phenoxy]butoxy}acetamido)-3,3-dimethylbutanoyl]-4-hydroxy-N-{[4-(4-methyl-1,3-thiazol-5-yl)phenyl]methyl}pyrrolidine-2-carboxamide] are under 50 nM and over 71%.
With `Cc1ncsc1-c1ccc([C@H](C)NC(=O)[C@@H]2C[C@@H](O)CN2C(=O)[C@@H](NC(=O)COCCCCOc2ccc(-c3ccc(N4C(=S)N(c5cnc(C#N)c(C(F)(F)F)c5)C(=O)C4(C)C)c(F)c3)cc2)C(C)(C)C)cc1` [Example 196, (2S,4R)-1-[(2S)-2-(2-{4-[4-(4-{3-[6-cyano-5-(trifluoromethyl)pyridin-3-yl]-5,5-dimethyl-4-oxo-2-sulfanylideneimidazolidin-1-yl}-3-fluorophenyl)phenoxy]butoxy}acetamido)-3,3-dimethylbutanoyl]-4-hydroxy-N-[(1S)-1-[4-(4-methyl-1,3-thiazol-5-yl)phenyl]ethyl]pyrrolidine-2-carboxamide], the 50% degradation concentration (DC50) under setting [1] was under 50 nM. In addition, under setting [2], the greatest degradation seen (Dmax) was over 71%.
In the same order, the values of `Cc1ncoc1-c1ccc(CNC(=O)[C@@H]2C[C@@H](O)CN2C(=O)[C@@H](NC(=O)COCCCCOc2ccc(-c3ccc(N4C(=S)N(c5cnc(C#N)c(C(F)(F)F)c5)C(=O)C45CCC5)cc3)cc2)C(C)(C)C)cc1` [Example 198, (2S,4R)-1-[(2S)-2-(2-{4-[4-(4-{7-[6-cyano-5-(trifluoromethyl)pyridin-3-yl]-8-oxo-6-sulfanylidene-5,7-diazaspiro[3.4]octan-5-yl}phenyl)phenoxy]butoxy}acetamido)-3,3-dimethylbutanoyl]-4-hydroxy-N-{[4-(4-methyl-1,3-oxazol-5-yl)phenyl]methyl}pyrrolidine-2-carboxamide] are under 50 nM and 51 to 70%.
In the same order, the values of `Cc1ncsc1-c1ccc(CNC(=O)[C@@H]2C[C@@H](O)CN2C(=O)[C@@H](NC(=O)COCCCCOc2ccc(-c3ccc(N4C(=S)N(c5cnc(C#N)c(C(F)(F)F)c5)C(=O)C45CCC5)cc3)cc2)C(C)(C)C)cc1` [Example 199, (2S,4R)-1-[(2S)-2-(2-{4-[4-(4-{7-[6-cyano-5-(trifluoromethyl)pyridin-3-yl]-8-oxo-6-sulfanylidene-5,7-diazaspiro[3.4]octan-5-yl}phenyl)phenoxy]butoxy}acetamido)-3,3-dimethylbutanoyl]-4-hydroxy-N-{[4-(4-methyl-1,3-thiazol-5-yl)phenyl]methyl}pyrrolidine-2-carboxamide] are under 50 nM and 51 to 70%.
For `CC(C)(C)[C@H](NC(=O)COCC1CC2(C1)CC(COc1ccc(N3C(=S)N(c4ccc(C#N)c(Cl)c4)C(=O)C3(C)C)cc1)C2)C(=O)N1C[C@H](O)C[C@H]1C(=O)NCc1ccc(-c2cnco2)cc1` (some centres unmarked) [Example 200], the Dmax (VCaP, read-out: VCaP Dmax (%)) is over 71%. The 50% degradation concentration (DC50) under setting [3] was under 50 nM.
Regarding `Cc1ncsc1-c1ccc(CNC(=O)[C@@H]2C[C@@H](O)CN2C(=O)[C@@H](NC(=O)COCC2CC3(C2)CC(COc2ccc(N4C(=S)N(c5ccc(C#N)c(C(F)(F)F)c5)C(=O)C45CCC5)cc2)C3)C(C)(C)C)cc1` (stereo partly drawn) [Example 203, (2S,4R)-1-[(2S)-2-[2-({6-[(4-{7-[4-cyano-3-(trifluoromethyl)phenyl]-8-oxo-6-sulfanylidene-5,7-diazaspiro[3.4]octan-5-yl}phenoxy)methyl]spiro[3.3]heptan-2-yl}methoxy)acetamido]-3,3-dimethylbutanoyl]-4-hydroxy-N-{[4-(4-methyl-1,3-thiazol-5-yl)phenyl]methyl} pyrrolidine-2-carboxamide], the Dmax (VCaP, read-out: VCaP Dmax (%)) is over 71%. In addition, under setting [3], the DC50 is under 50 nM.
On to `Cc1ncsc1-c1ccc(CNC(=O)[C@@H]2C[C@@H](O)CN2C(=O)[C@@H](NC(=O)CCOCCN2CCC(COc3ccc(N4C(=S)N(c5ccc(C#N)c(C(F)(F)F)c5)C(=O)C4(C)C)cc3)CC2)C(C)(C)C)cc1` [Example 313], for which, under setting [4], the DC50 is under 50 nM.
For `Cc1ncsc1-c1ccc(CNC(=O)[C@@H]2C[C@@H](O)CN2C(=O)[C@H](C(C)C)N2CC(OCCOCCOc3ccc(N4C(=S)N(c5ccc(C#N)c(C(F)(F)F)c5)C(=O)C4(C)C)cc3)=CC2=O)cc1` [Example 314], the Dmax (VCaP, read-out: VCaP Dmax (%)) is under 25%. The DC50 under setting [4] was 51 to 500 nM.
In the same order, the values of `Cc1ncsc1-c1ccc(CNC(=O)[C@@H]2C[C@@H](O)CN2C(=O)[C@@H](NC(=O)CCCOCCCOCCOc2ccc(N3C(=S)N(c4ccc(C#N)c(C(F)(F)F)c4)C(=O)C3(C)C)cc2)C(C)(C)C)cc1` [Example 315] are 26 to 50% and 51 to 500 nM.
In the same order, the values of `Cc1ncsc1-c1ccc(CNC(=O)[C@@H]2C[C@@H](O)CN2C(=O)[C@@H](NC(=O)CNCCCCOCCCOc2ccc(N3C(=S)N(c4ccc(C#N)c(C(F)(F)F)c4)C(=O)C3(C)C)cc2)C(C)(C)C)cc1` [Example 316] are 26 to 50% and 51 to 500 nM.
In the same order, the values of `Cc1ncsc1-c1ccc(CNC(=O)[C@@H]2C[C@@H](O)CN2C(=O)[C@@H](NC(=O)CN(C)CCCCOCCCOc2ccc(N3C(=S)N(c4ccc(C#N)c(C(F)(F)F)c4)C(=O)C3(C)C)cc2)C(C)(C)C)cc1` [Example 317] are 26 to 50% and 51 to 500 nM.

The record behind these values is patent US11427548B2 (Arvinas Operations, Inc., priority 2015, dated 2022).
